Laboratory results taken from ChEMBL document CHEMBL6092134, “N-acyl-4-arylaminopiperidines: Design and synthesis of a potential antimicrobial scaffold” (Bioorg Med Chem Lett, 2024).
pIC50: −log10 of the molar value.

Legend:
Klebsiella pneumoniae = test: Antibacterial activity against Klebsiella pneumoniae assessed as inhibition of bacterial growth at 50 uM by microdilution assay relative to control; format: functional
Pseudomonas aeruginosa = test: Antibacterial activity against Pseudomonas aeruginosa assessed as inhibition of bacterial growth at 50 uM by microdilution assay relative to control; format: functional
Staphylococcus aureus [1] = test: Antibacterial activity against methicillin-resistant Staphylococcus aureus assessed as inhibition of bacterial growth at 50 uM by microdilution assay relative to control; format: functional
Staphylococcus aureus [2] = test: Antibacterial activity against methicillin-resistant Staphylococcus aureus assessed as inhibition of bacterial growth by microdilution assay; format: functional, organism-based

| SMILES | inhibition at 50 µM (Klebsiella pneumoniae) | inhibition at 50 µM (Pseudomonas aeruginosa) | inhibition at 50 µM (Staphylococcus aureus [1]) | pIC50 (Staphylococcus aureus [2]) |
| --- | --- | --- | --- | --- |
| CC(C)c1ccc(NC2CCN(C(=O)/C=C/c3ccccc3)CC2)cc1 | 27% | 20% | 42% | – |
| O=C(/C=C/c1ccc2c(c1)OCCCO2)N1CCC(Nc2ccccc2)CC1 | 40% | 6% | 0% | – |
| O=C(/C=C/c1ccc2c(c1)OCO2)N1CCC(Nc2ccc(Cl)cc2)CC1 | 32% | 13% | 20% | – |
| COc1ccc(NC2CCN(C(=O)/C=C/c3ccc4c(c3)OCO4)CC2)cc1 | 44% | 0% | 0% | – |
| CC(C)c1ccc(NC2CCN(C(=O)/C=C/c3ccc4c(c3)OCCCO4)CC2)cc1 | 54% | 14% | 0% | – |
| COc1ccc(NC2CCN(C(=O)/C=C/c3ccccc3)CC2)cc1 | 21% | 7% | 15% | – |
| CC(C)c1ccc(NC2CCN(C(=O)/C=C/c3ccc4c(c3)OCO4)CC2)cc1 | 28% | 27% | 0% | – |
| O=C(/C=C/c1ccc2c(c1)OCCO2)N1CCC(Nc2ccccc2)CC1 | 35% | 14% | 0% | – |
| COc1cc(/C=C/C(=O)N2CCC(Nc3ccc(OC(F)(F)F)cc3)CC2)ccc1O | 0% | 16% | 0% | – |
| COc1cc(/C=C/C(=O)N2CCC(Nc3ccccc3)CC2)ccc1O | 37% | 20% | 8% | – |
| COc1ccc(NC2CCN(C(=O)/C=C/c3ccc(O)c(OC)c3)CC2)cc1 | 0% | 0% | 4% | – |
| COc1cc(/C=C/C(=O)N2CCC(Nc3ccc(F)cc3)CC2)ccc1O | 0% | 0% | 0% | – |
| COc1ccc(NC2CCN(C(=O)/C=C/c3ccc4c(c3)OCCO4)CC2)cc1 | 40% | 7% | 30% | – |
| COc1cc(/C=C/C(=O)N2CCC(NCc3ccccc3)CC2)ccc1O | 41% | 0% | 0% | – |
| COc1cc(/C=C/C(=O)N2CCC(Nc3ccc(Cl)cc3)CC2)ccc1O | 37% | 18% | 0% | – |
| O=C(/C=C/c1ccc2c(c1)OCCO2)N1CCC(Nc2ccc(Cl)cc2)CC1 | 19% | 10% | 24% | 4.22 |
| COc1cc(/C=C/C(=O)N2CCC(Nc3ccc4c(c3)OCCO4)CC2)ccc1O | 23% | 0% | 3% | – |
| COc1cc(/C=C/C(=O)N2CCC(Nc3cccc4ccccc34)CC2)ccc1O | 0% | 0% | 0% | – |
| O=C(/C=C/c1ccc2c(c1)OCO2)N1CCC(Nc2ccccc2)CC1 | 24% | 0% | 0% | – |
| COc1cc(/C=C/C(=O)N2CCC(Nc3ccc(C)cc3)CC2)ccc1O | 49% | 6% | 0% | – |
| COc1cc(/C=C/C(=O)N2CCC(Nc3cccc(F)c3)CC2)ccc1O | 29% | 4% | 0% | – |
| O=C(/C=C/c1ccc2c(c1)OCCCO2)N1CCC(Nc2ccc(Cl)cc2)CC1 | 27% | 5% | 0% | – |
| COc1ccc(NC2CCN(C(=O)/C=C/c3ccc4c(c3)OCCCO4)CC2)cc1 | 30% | 0% | 0% | 4.30 |
| O=C(/C=C/c1ccccc1)N1CCC(Nc2ccccc2)CC1 | 0% | 0% | 36% | – |
| COc1cc(/C=C/C(=O)N2CCC(Nc3cccc(Cl)c3)CC2)ccc1O | 0% | 14% | 0% | – |
| COc1cc(/C=C/C(=O)N2CCC(Nc3ccc(C(C)C)cc3)CC2)ccc1O | 20% | 25% | 0% | – |
| CC(C)c1ccc(NC2CCN(C(=O)/C=C/c3ccc4c(c3)OCCO4)CC2)cc1 | 29% | 10% | 26% | – |
| O=C(/C=C/c1ccccc1)N1CCC(Nc2ccc(Cl)cc2)CC1 | 38% | 37% | 22% | – |
